In patent publication US10322129B2, “Therapeutic compositions containing dipyridamole, treatment packs and kits including such compositions and methods for producing same” (O.D. Ocular Discovery Ltd., priority 2015, dated 2019):
Values after ≈ are worked out from the molar mass of the structure shown.

Columns and labels:
[1] = dissolution in aqueous solution by adjusting the pH; type: physicochemical; conditions: pH of the aqueous solution adjusted to ~6.6 (6.5-6.7) or less
Text: The natural pH of tear fluid is 7.4; however, discomfort for the user will not be felt as long as the pH of the administered medication stays in the range of 6.6-7.8 (Sampath Kumar et al., “Recent Challenges and Advances in Ophthalmic Drug Delivery System,” in The Pharma Innovation, Vol. 1, No. 4 (2012)). Others administer eye drops at a pH of 5.5 and find this pH to be optimal.

[2] = cited from earlier work
[3] = cited from earlier work; remark: listed apart in the source

dissolution in the aqueous solution [1]: fully dissolves
SMILES: OCCN(CCO)c1nc(N2CCCCC2)c2nc(N(CCO)CCO)nc(N3CCCCC3)c2n1 [Dipyridamole, dipyridamole]
solubility in methanol [2]: very soluble
water solubility ([3]; Meylan, W M ET AL. (1996)): 8.17 µg/mL (≈ 16.2 µM)
solubility in water ([3]; water): practically insoluble
